Like-named read-outs stand apart in the source and are kept apart here.
What was measured:
FPR1 = target: T1, FPR1 (Homo sapiens, UniProt P21462); type: cell-based
T1 construct: expressed in transfected cells; host or cells: HEK293T
T1 sequence (P21462 1-350): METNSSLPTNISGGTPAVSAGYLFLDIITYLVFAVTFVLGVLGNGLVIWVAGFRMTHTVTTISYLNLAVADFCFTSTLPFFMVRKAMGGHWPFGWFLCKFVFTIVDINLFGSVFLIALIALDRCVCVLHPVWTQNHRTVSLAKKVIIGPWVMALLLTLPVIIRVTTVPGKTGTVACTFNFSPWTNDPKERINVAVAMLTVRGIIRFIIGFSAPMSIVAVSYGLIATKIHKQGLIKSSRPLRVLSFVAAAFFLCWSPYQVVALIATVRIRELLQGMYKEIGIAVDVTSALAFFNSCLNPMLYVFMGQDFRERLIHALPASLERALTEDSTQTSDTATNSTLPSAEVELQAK

[1] = tested on: human polymorphonuclear granulocytes (PMN; neutrophils); type: cell-based
[2] = SARS-CoV-2 omicron B.1.1.529 spike pool peptides, 10 µM, PMN, n=6

| Sequence | non-activators of FPR1 and PMNs: FPR1 (FPR1) | non-activators of FPR1 and PMNs: PMNs [1, 2] | significant FPR1 activators (group of the spike peptide pool screening) (FPR1) | significant PMN activators (group of the spike peptide pool screening) [1, 2] | non-activators of FPR1 and PMNs: PMNs [1] |
| --- | --- | --- | --- | --- | --- |
| FERDISTEIYQAGNK | non-activators of FPR1 and PMNs | non-activators of FPR1 and PMNs |  |  |  |
| LKSYSFRPTYGVGHQ | non-activators of FPR1 and PMNs | non-activators of FPR1 and PMNs |  |  |  |
| SFRPTYGVGHQPYRV | non-activators of FPR1 and PMNs | non-activators of FPR1 and PMNs |  |  |  |
| ALGKLQDVVNHNAQA | non-activators of FPR1 and PMNs | non-activators of FPR1 and PMNs |  |  |  |
| DYSVLYNLAPFFTFK |  |  | significant FPR1 activators | significant PMN activators |  |
| VLNDIFSRLDKVEAE | non-activators of FPR1 and PMNs | non-activators of FPR1 and PMNs |  |  |  |
| AGFNCYFPLKSYSFR | non-activators of FPR1 and PMNs | non-activators of FPR1 and PMNs |  |  |  |
| AGICASYQTQTKSHR | non-activators of FPR1 and PMNs | non-activators of FPR1 and PMNs |  |  |  |
| TSNQVAVLYQGVNCT | non-activators of FPR1 and PMNs | non-activators of FPR1 and PMNs |  |  |  |
| IYQAGNKPCNGVAGF | non-activators of FPR1 and PMNs | non-activators of FPR1 and PMNs |  |  |  |
| KHTPIIVREPEDLPQ | non-activators of FPR1 and PMNs | non-activators of FPR1 and PMNs |  |  |  |
| NVTWFHVISGTNGTK |  |  | significant FPR1 activators | significant PMN activators |  |
| DLICAQKFKGLTVLP |  |  |  | significant PMN activators |  |
| CTQLKRALTGIAVEQ | non-activators of FPR1 and PMNs | non-activators of FPR1 and PMNs |  |  |  |
| LQDVVNHNAQALNTL | non-activators of FPR1 and PMNs | non-activators of FPR1 and PMNs |  |  |  |
| VNHNAQALNTLVKQL | non-activators of FPR1 and PMNs | non-activators of FPR1 and PMNs |  |  |  |
| SKFGAISSVLNDIFS | non-activators of FPR1 and PMNs | non-activators of FPR1 and PMNs |  |  |  |
| VLPFNDGVYFASIEK | non-activators of FPR1 and PMNs | non-activators of FPR1 and PMNs |  |  |  |
| ASYQTQTKSHRRARS | non-activators of FPR1 and PMNs | non-activators of FPR1 and PMNs |  |  |  |
| YGSFCTQLKRALTGI | non-activators of FPR1 and PMNs | non-activators of FPR1 and PMNs |  |  |  |
| DFTGCVIAWNSNKLD | non-activators of FPR1 and PMNs | non-activators of FPR1 and PMNs |  |  |  |
| FCNDPFLDHKNNKSW | non-activators of FPR1 and PMNs | non-activators of FPR1 and PMNs |  |  |  |
| DLFLPFFSNVTWFHV |  |  | significant FPR1 activators | significant PMN activators |  |
| KRALTGIAVEQDKNT | non-activators of FPR1 and PMNs | non-activators of FPR1 and PMNs |  |  |  |
| IFSRLDKVEAEVQID | non-activators of FPR1 and PMNs |  |  |  | non-activators of FPR1 and PMNs |
| NGLKGTGVLTESNKK | non-activators of FPR1 and PMNs | non-activators of FPR1 and PMNs |  |  |  |
| CVIAWNSNKLDSKVS | non-activators of FPR1 and PMNs | non-activators of FPR1 and PMNs |  |  |  |
| KQLSSKFGAISSVLN | non-activators of FPR1 and PMNs | non-activators of FPR1 and PMNs |  |  |  |

| Sequence | non-activators of FPR1 and PMNs: FPR1 (FPR1) | non-activators of FPR1 and PMNs: PMNs [1, 2] | significant FPR1 activators (group of the spike peptide pool screening) (FPR1) | significant PMN activators (group of the spike peptide pool screening) [1, 2] | non-activators of FPR1 and PMNs: PMNs [1] |
| --- | --- | --- | --- | --- | --- |
| SHRRARSVASQSIIA | non-activators of FPR1 and PMNs | non-activators of FPR1 and PMNs |  |  |  |
| VAVLYQGVNCTEVPV | non-activators of FPR1 and PMNs | non-activators of FPR1 and PMNs |  |  |  |
| PFFSNVTWFHVISGT |  |  | significant FPR1 activators | significant PMN activators |  |
| GHQPYRVVVLSFELL |  |  | significant FPR1 activators | significant PMN activators |  |
| GNKPCNGVAGFNCYF | non-activators of FPR1 and PMNs | non-activators of FPR1 and PMNs |  |  |  |
| CPFDEVFNATRFASV | non-activators of FPR1 and PMNs | non-activators of FPR1 and PMNs |  |  |  |
| APFFTFKCYGVSPTK | non-activators of FPR1 and PMNs | non-activators of FPR1 and PMNs |  |  |  |
| KLDSKVSGNYNYLYR | non-activators of FPR1 and PMNs | non-activators of FPR1 and PMNs |  |  |  |
| PGTNTSNQVAVLYQG | non-activators of FPR1 and PMNs | non-activators of FPR1 and PMNs |  |  |  |
| RQIAPGQTGNIADYN | non-activators of FPR1 and PMNs | non-activators of FPR1 and PMNs |  |  |  |
| PGQTGNIADYNYKLP | non-activators of FPR1 and PMNs | non-activators of FPR1 and PMNs |  |  |  |
| NTLVKQLSSKFGAIS | non-activators of FPR1 and PMNs | non-activators of FPR1 and PMNs |  |  |  |
| NCVADYSVLYNLAPF | non-activators of FPR1 and PMNs | non-activators of FPR1 and PMNs |  |  |  |
| KGLTVLPPLLTDEMI |  |  | significant FPR1 activators |  |  |
| NKCVNFNFNGLKGTG | non-activators of FPR1 and PMNs | non-activators of FPR1 and PMNs |  |  |  |
| YFGGFNFSQILPDPS | non-activators of FPR1 and PMNs | non-activators of FPR1 and PMNs |  |  |  |
| QTRAGCLIGAEYVNN | non-activators of FPR1 and PMNs | non-activators of FPR1 and PMNs |  |  |  |
| IIVREPEDLPQGFSA | non-activators of FPR1 and PMNs | non-activators of FPR1 and PMNs |  |  |  |
| ISTEIYQAGNKPCNG | non-activators of FPR1 and PMNs | non-activators of FPR1 and PMNs |  |  |  |
| PFLDHKNNKSWMESE | non-activators of FPR1 and PMNs | non-activators of FPR1 and PMNs |  |  |  |
| FHVISGTNGTKRFDN | non-activators of FPR1 and PMNs | non-activators of FPR1 and PMNs |  |  |  |
| PPIKYFGGFNFSQIL | non-activators of FPR1 and PMNs | non-activators of FPR1 and PMNs |  |  |  |
| GNIADYNYKLPDDFT | non-activators of FPR1 and PMNs | non-activators of FPR1 and PMNs |  |  |  |
| RFPNITNLCPFDEVF | non-activators of FPR1 and PMNs | non-activators of FPR1 and PMNs |  |  |  |
| AQKFKGLTVLPPLLT |  |  | significant FPR1 activators |  |  |
| IAARDLICAQKFKGL |  |  |  | significant PMN activators |  |
| IYKTPPIKYFGGFNF |  |  |  | significant PMN activators |  |

Source: paper PMC12284294 (iScience, 2025)
